{"source": "paper PMC5074247", "about": "(Biopharmaceutics & Drug Disposition, 2016)", "key": {"[1]": {"settings": "cited from earlier work"}, "[2]": {"settings": "intravenously administered to rats at doses above 3 mg/kg ref 23; cited from earlier work"}, "[3]": {"settings": "cited from earlier work", "remark": "listed apart in the source"}, "[4]": {"settings": "ZDF rat model; compared with sitagliptin ref 39; cited from earlier work"}, "[5]": {"assay_type": "in vivo, Sprague–Dawley rats", "settings": "oral 1 mg/kg [^14C]teneligliptin, SD rats"}, "[6]": {"settings": "ref manufacturer's interview form; cited from earlier work"}, "[7]": {"test_system": "DPP‐4", "settings": "against DPP‐4 ref 2; cited from earlier work"}}, "note": "Like-named read-outs stand apart in the source and are kept apart here."}
{"smiles": "CC#CCn1c(N2CCC[C@@H](N)C2)nc2c1c(=O)n(Cc1nc(C)c3ccccc3n1)c(=O)n2C", "note": "[Linagliptin, 8‐(3‐I‐aminopiperidin‐1‐yl)‐7‐but‐2‐ynyl‐3‐methyl‐1‐(4‐methyl‐quinazolin‐2‐ylmethyl)‐3,7‐dihydropurine‐2,6‐dione]", "values": [{"measurement": "K p of radioactivity", "setting": "[1]; Heart, oral 2 mg/kg, 4 h, rats ref 23", "value": 4.78}, {"measurement": "K p of radioactivity", "setting": "[1]; Kidney, oral 2 mg/kg, 4 h, rats ref 23, 2 mg/kg", "value": 113}, {"measurement": "K p of radioactivity", "setting": "[1]; Kidney, oral 2 mg/kg, 4 h, rats ref 23, listed as linagliptin, 2 mg/kg", "value": "around 100"}, {"measurement": "K p of radioactivity", "setting": "[1]; Liver, oral 2 mg/kg, 4 h, rats ref 23", "value": 42.3}, {"measurement": "K p of radioactivity", "setting": "[1]; Lung, oral 2 mg/kg, 4 h, rats ref 23", "value": 11.1}, {"measurement": "tissue distribution", "setting": "[2]", "value": "non‐linear tissue distribution"}, {"measurement": "V ss", "setting": "[3]; intravenous administration to rats ref 23", "value": 50.3, "unit": "L/kg"}, {"measurement": "acetylcholine‐induced vascular relaxation", "setting": "[4]", "value": "significantly stronger"}]}
{"smiles": "O=C(C1CC(N2CCN(c3cc(CO)nn3-c3ccccc3)CC2)CN1)N1CCSC1", "note": "(stereo not shown) [M4]", "values": [{"measurement": "metabolite detection in kidney", "setting": "[5]; kidney, 0.5, 24 and 72 h", "value": "detected in trace concentrations"}]}
{"smiles": "Cc1cc2ncc(C(=O)NCC(C)(C)NCC(=O)N3CCC[C@H]3C#N)cn2n1.Cl", "note": "[Anagliptin, N‐[2‐({2‐[(2S)‐2‐cyanopyrrolidin‐1‐yl]‐2‐oxoethyl}amino)‐2‐methylpropyl]‐2‐methylpyrazolo[1,5‐a]pyrimidine‐6‐carboxamide hydrochloride]", "values": [{"measurement": "pKa", "setting": "[6]", "value": 6.7}, {"measurement": "K p of radioactivity", "setting": "[1]; Heart, oral 10 mg/kg, 6 h, rats ref 21", "value": 0.74}, {"measurement": "K p of radioactivity", "setting": "[1]; Kidney, oral 10 mg/kg, 6 h, rats ref 21, 10 mg/kg", "value": 6.71}, {"measurement": "K p of radioactivity", "setting": "[1]; Liver, oral 10 mg/kg, 6 h, rats ref 21", "value": 4.36}, {"measurement": "K p of radioactivity", "setting": "[1]; Lung, oral 10 mg/kg, 6 h, rats ref 21", "value": 1.50}, {"measurement": "K p of radioactivity", "setting": "[1]; Pancreas, oral 10 mg/kg, 6 h, rats ref 21", "value": 0.81}, {"measurement": "IC50", "setting": "[7]", "value": 3.8, "unit": "nM"}, {"measurement": "V ss", "setting": "[3]; intravenous administration to rats ref 2", "value": 0.68, "unit": "L/kg"}]}
{"smiles": "N#C[C@@H]1CCCN1C(=O)CNC12CC3CC(CC(O)(C3)C1)C2", "note": "[Vildagliptin, 1‐[[(3‐Hydroxy‐1‐adamantyl)amino]acetyl]‐2‐cyano‐(S)‐pyrrolidine]", "values": [{"measurement": "pKa", "setting": "[6]", "value": 7.6}, {"measurement": "K p of radioactivity", "setting": "[1]; Heart, oral 100 mg/kg, 4 h, rats ref 26", "value": 1.48}, {"measurement": "K p of radioactivity", "setting": "[1]; Kidney, oral 100 mg/kg, 4 h, rats ref 26", "value": 13.4}, {"measurement": "K p of radioactivity", "setting": "[1]; Liver, oral 100 mg/kg, 4 h, rats ref 26", "value": 13.6}, {"measurement": "K p of radioactivity", "setting": "[1]; Lung, oral 100 mg/kg, 4 h, rats ref 26", "value": 2.60}, {"measurement": "K p of radioactivity", "setting": "[1]; Pancreas, oral 100 mg/kg, 4 h, rats ref 26", "value": 3.29}]}
{"smiles": "Cn1c(=O)cc(N2CCC[C@@H](N)C2)n(Cc2ccccc2C#N)c1=O", "note": "[Alogliptin]", "values": [{"measurement": "pKa", "setting": "[6]", "value": 8.5}, {"measurement": "K p of radioactivity", "setting": "[1]; Heart, oral 3 mg/kg, 4 h, rats ref 22", "value": 2.36}, {"measurement": "K p of radioactivity", "setting": "[1]; Kidney, oral 3 mg/kg, 4 h, rats ref 22", "value": 29.7}, {"measurement": "K p of radioactivity", "setting": "[1]; Liver, oral 3 mg/kg, 4 h, rats ref 22", "value": 17.3}, {"measurement": "K p of radioactivity", "setting": "[1]; Lung, oral 3 mg/kg, 4 h, rats ref 22", "value": 8.6}, {"measurement": "K p of radioactivity", "setting": "[1]; Pancreas, oral 3 mg/kg, 4 h, rats ref 22", "value": 4.94}, {"measurement": "V ss", "setting": "[3]; intravenous administration to rats ref 19", "value": "3.5 19 l/kg"}]}
{"smiles": "Cc1cc(N2CCN(C3CNC(C(=O)N4CC[S+]([O-])C4)C3)CC2)n(-c2ccccc2)n1", "note": "(stereo not shown) [M1]", "values": [{"measurement": "metabolite detection in plasma", "setting": "[5]; plasma, 0.5 h", "value": "detected at low levels"}]}
{"smiles": "N[C@@H](CC(=O)N1CCn2c(nnc2C(F)(F)F)C1)Cc1cc(F)c(F)cc1F", "note": "[Sitagliptin, (2R)‐4‐Oxo‐4‐[3‐(trifluoromethyl)‐5,6‐dihydro[1,2,4]‐triazolo[4,3‐a]pyrazin‐7(8H)‐yl]‐1‐(2,4,5‐trifluorophenyl)butan‐2‐amine]", "values": [{"measurement": "pKa", "setting": "[6]", "value": 7.7}, {"measurement": "K p of radioactivity", "setting": "[1]; Heart, oral 5 mg/kg, 4 h, rats ref 25", "value": 2.73}, {"measurement": "K p of radioactivity", "setting": "[1]; Kidney, oral 5 mg/kg, 4 h, rats ref 25", "value": 14.7}, {"measurement": "K p of radioactivity", "setting": "[1]; Liver, oral 5 mg/kg, 4 h, rats ref 25", "value": 22.0}, {"measurement": "K p of radioactivity", "setting": "[1]; Lung, oral 5 mg/kg, 4 h, rats ref 25", "value": 9.09}, {"measurement": "K p of radioactivity", "setting": "[1]; Pancreas, oral 5 mg/kg, 4 h, rats ref 25", "value": 5.69}, {"measurement": "V ss", "setting": "[3]; intravenous administration to rats ref 25", "value": "8.8 25 l/kg"}]}
{"smiles": "N#C[C@@H]1C[C@@H]2C[C@@H]2N1C(=O)[C@@H](N)C12CC3CC(CC(O)(C3)C1)C2", "note": "[Saxagliptin]", "values": [{"measurement": "pKa", "setting": "[6]", "value": 7.3}, {"measurement": "V ss", "setting": "[3]; intravenous administration to rats ref 20", "value": "5.2 20 l/kg"}]}
